Measurements taken from patent EP0561850B1, “7-SUBSTITUTED-6-FLUORO-1,4-DIHYDRO-4-OXO-QUINOLINE-3-CARBOXYLIC ACID COMPOUNDS USEFUL AS ANTIBACTERIAL AGENTS” (priority 1990, dated 1992).
Converted amounts (≈) assume the structure as drawn.

What was measured:
Experiment in all cases: Microbroth dilution (MHB) method, NCCLS M7-A2
[1] = test system: Providencia rettgeri S-121; format: cell-based; settings: Providencia rettgeri, S121, Pr S-121, inoculum 5 x 10^5 cfu/ml, 35 °C/18 hr, read-out: MIC
Protocol: (§1) The test organisms were obtained from ATCC and clinical laboratories. The 96-well microtitre plates containing […] of serially diluted test compounds in Mueller Hinton Broth (MHB) (conc. range 64-0.03 µg/ml) were inoculated with […] of bacterial suspension in MHB so that an inoculum size of 5 x 10^5 cfu/ml was achieved.
(§2) EC. (S- 63): Eschericia coli Ecl. (S- 130): Enterobacter cloacae Pa. (S- 67): Pseudomonas aeruginosa Kp. (S- 80): Klebsiella pneumoniae Pr.
(§3) Microbroth Dilution (MHB) method; Inoculum, 5 x 10^5 cfu/ml; Incubation 35 °C/18 hr

[2] = test system: Pseudomonas aeruginosa S-67; format: cell-based; settings: Pseudomonas aeruginosa, S67; Pa S-67; MHB; inoculum 5 x 10^5 cfu/ml; 35 °C/18 hr; read-out: MIC
Protocol: as §1, §2, §3

[3] = test system: Staphylococcus aureus S-127; format: cell-based; settings: Staphylococcus aureus, S127, Sa S-127, inoculum 5 x 10^5 cfu/ml, 35 °C/18 hr, read-out: MIC
Protocol: as §1, §2, §3

[4] = test system: Klebsiella pneumoniae S-80; format: cell-based; settings: Klebsiella pneumoniae, S80; Kp S-80; MHB; inoculum 5 x 10^5 cfu/ml; 35 °C/18 hr; read-out: MIC
Protocol: as §1, §2, §3

[5] = test system: Enterobacter cloacae S-130; format: cell-based; settings: Enterobacter cloacae, S130, Ecl S-130, inoculum 5 x 10^5 cfu/ml, 35 °C/18 hr, read-out: MIC
Protocol: as §1, §2, §3

Eschericia coli S-63 = format: cell-based; settings: Ec S-63, inoculum 5 x 10^5 cfu/ml, 35 °C/18 hr, read-out: MIC
Protocol: as §1, §2, §3

Sa 127M = format: cell-based, Staphylococcus aureus; settings: Staphylococcus aureus, inoculum 5 x 10^5 cfu/ml, 35 °C/18 hr, read-out: MIC
Protocol: as §1, §2, §3

Row | Compound | MIC [1] | MIC [2] | MIC [3] | MIC [4] | MIC [5] | MIC (Eschericia coli S-63) | MIC (Sa 127M)
1 | C[C@H]1COc2c(N3CCC(n4ccnn4)C3)c(F)cc3c(=O)c(C(=O)O)cn1c23 (single isomer, unassigned; (-)) [Example 38] | 1 µg/mL (≈ 2.5 µM) | 8 µg/mL (≈ 20 µM) | 0.12 µg/mL (≈ 0.3 µM) | 1 µg/mL (≈ 2.5 µM) | 1 µg/mL (≈ 2.5 µM) | 0.25 µg/mL (≈ 0.626 µM) | 0.5 µg/mL (≈ 1.25 µM)
2 | Cc1cn(C2CCN(c3c(F)cc4c(=O)c(C(=O)O)cn5c4c3OC[C@@H]5C)C2)nn1 (single isomer, unassigned; (-)) [Example 39] | 1 µg/mL (≈ 2.42 µM) | 8 µg/mL (≈ 19.4 µM) | 0.03 µg/mL (≈ 0.0726 µM) | 1 µg/mL (≈ 2.42 µM) | 1 µg/mL (≈ 2.42 µM) | 0.25 µg/mL (≈ 0.605 µM) | 0.12 µg/mL (≈ 0.29 µM)
3 | C[C@H]1COc2c(N3CCC(n4cncn4)C3)c(F)cc3c(=O)c(C(=O)O)cn1c23 (single isomer, unassigned; (-)) [Example 40] | 0.5 µg/mL (≈ 1.25 µM) | 8 µg/mL (≈ 20 µM) | 1 µg/mL (≈ 2.5 µM) | 1 µg/mL (≈ 2.5 µM) | 1 µg/mL (≈ 2.5 µM) | 1 µg/mL (≈ 2.5 µM) | 0.5 µg/mL (≈ 1.25 µM)
4 | Cc1c(F)c(N2CCC(n3cncn3)C2)c(F)c2c1c(=O)c(C(=O)O)cn2C1CC1 (stereo not drawn) [Example 23, 1-Cyclopropyl-6,8-difluoro-5-methyl-7-[3-(1,2,4-triazol-1-yl)pyrrolidin-1-yl]-1,4-dihydro-4-oxo-quinoline-3-carboxylic acid] | 0.5 µg/mL (≈ 1.2 µM) | 4 µg/mL (≈ 9.63 µM) | ≤ 0.015 µg/mL | 0.5 µg/mL (≈ 1.2 µM) | 0.25 µg/mL (≈ 0.602 µM) | 0.12 µg/mL (≈ 0.289 µM) | ≤ 0.015 µg/mL
5 | Nc1c(F)c(N2CCC(n3cncn3)C2)c(F)c2c1c(=O)c(C(=O)O)cn2C1CC1 (stereo not drawn) [Example 28, 5-Amino-1-cyclopropyl-6,8-difluoro-7-[3-(1,2,4-triazol-1-yl)pyrrolidin-1-yl]-1,4-dihydro-4-oxo-quinoline-3-carboxylic acid] |  |  | ≤ 0.015 µg/mL |  |  | 0.12 µg/mL (≈ 0.288 µM) | 

The remaining lines, values ahead:

Row | MIC [1] | MIC [2] | MIC [3] | MIC [4] | MIC [5] | MIC (Eschericia coli S-63) | MIC (Sa 127M) | Compound
6 | 0.12 µg/mL (≈ 0.279 µM) | 2 µg/mL (≈ 4.66 µM) | 0.015 µg/mL (≈ 0.0349 µM) | 0.25 µg/mL (≈ 0.582 µM) | 0.25 µg/mL (≈ 0.582 µM) | 0.06 µg/mL (≈ 0.14 µM) | 0.015 µg/mL (≈ 0.0349 µM) | Cc1cn(C2CCN(c3c(F)c(C)c4c(=O)c(C(=O)O)cn(C5CC5)c4c3F)C2)nn1 (stereo not drawn) [Example 21, 1-Cyclopropyl-6,8-difluoro-5-methyl-7-[3-(4-methyl-1,2,3-triazol-1-yl)pyrrolidin-1-yl]-1,4-dihydro-4-oxo-quinoline-3-carboxylic acid]
7 | 0.25 µg/mL (≈ 0.602 µM) | 4 µg/mL (≈ 9.63 µM) | ≤ 0.015 µg/mL | 0.5 µg/mL (≈ 1.2 µM) | 0.25 µg/mL (≈ 0.602 µM) | 0.25 µg/mL (≈ 0.602 µM) | 0.12 µg/mL (≈ 0.289 µM) | Cc1cnnn1C1CCN(c2c(F)cc3c(=O)c(C(=O)O)cn(C4CC4)c3c2F)C1 (stereo not drawn) [Example 22, 1-Cyclopropyl-6,8-difluoro-7-[3-(5-methyl-1,2,3-triazol-1-yl)pyrrolidin-1-yl]-1,4-dihydro-4-oxo-quinoline-3-carboxylic acid]
8 | 0.5 µg/mL (≈ 1.2 µM) | 4 µg/mL (≈ 9.63 µM) | ≤ 0.015 µg/mL | 0.5 µg/mL (≈ 1.2 µM) | 0.25 µg/mL (≈ 0.602 µM) | 0.12 µg/mL (≈ 0.289 µM) | ≤ 0.015 µg/mL | Cc1c(F)c(N2CCC(n3ccnn3)C2)c(F)c2c1c(=O)c(C(=O)O)cn2C1CC1 (stereo not drawn) [Example 24, 1-Cyclopropyl-6,8-difluoro-5-methyl-7-[3-(1,2,3-triazol-1-yl)pyrrolidin-1-yl]-1,4-dihydro-4-oxo-quinoline-3-carboxylic acid]
9 | 0.25 µg/mL (≈ 0.581 µM) | 2 µg/mL (≈ 4.65 µM) | ≤ 0.015 µg/mL | 0.25 µg/mL (≈ 0.581 µM) | 0.25 µg/mL (≈ 0.581 µM) | 0.06 µg/mL (≈ 0.139 µM) | 0.03 µg/mL (≈ 0.0697 µM) | Cc1cn(C2CCN(c3c(F)c(N)c4c(=O)c(C(=O)O)cn(C5CC5)c4c3F)C2)nn1 (stereo not drawn) [Example 25, 5-Amino-1-cyclopropyl-6,8-difluoro-7-[3-(4-methyl-1,2,3-triazol-1-yl)pyrrolidin-1-yl]-1,4-dihydro-4-oxo-quinoline-3-carboxylic acid]
10 | 1 µg/mL (≈ 2.33 µM) | 8 µg/mL (≈ 18.6 µM) | 0.03 µg/mL (≈ 0.0699 µM) | 1 µg/mL (≈ 2.33 µM) | 2 µg/mL (≈ 4.66 µM) | 0.25 µg/mL (≈ 0.582 µM) | 0.06 µg/mL (≈ 0.14 µM) | Cc1nnn(C2CCN(c3c(F)cc4c(=O)c(C(=O)O)cn(C5CC5)c4c3F)C2)c1C (stereo not drawn) [Example 26, 1-Cyclopropyl-6,8-difluoro-7[3-(4,5-dimethyl-1,2,3-triazol-1-yl)pyrrolidin-1-yl]-1,4-dihydro-4-oxo-quinoline-3-carboxylic acid]
11 | 2 µg/mL (≈ 4.81 µM) | 4 µg/mL (≈ 9.63 µM) | 0.125 µg/mL (≈ 0.301 µM) | 0.5 µg/mL (≈ 1.2 µM) | 1 µg/mL (≈ 2.41 µM) | 0.25 µg/mL (≈ 0.602 µM) | 0.25 µg/mL (≈ 0.602 µM) | Cc1cn(C2CCN(c3c(F)cc4c(=O)c(C(=O)O)cn(C5CC5)c4c3F)C2)nn1 (stereo not drawn) [Example 27, 1-Cyclopropyl-6,8-difluoro-7-[3-(4-methyl-1,2,3-triazol-1-yl)pyrrolidin-1-yl]-1,4-dihydro-4-oxo-quinoline-3-carboxylic acid]
